Results as given in US20120329815A1, “Famciclovir for the Treatment of Recurrent Herpes Labialis using a One-Day Treatment” (priority 2005, published 2012).

What was measured:
[1] = system: recurrent herpes labialis; assay: Study 2403: randomized, double-blind, placebo-controlled trial of patient-initiated one-day therapy, efficacy; format: in vivo, human; settings: for Hazard ratio vs placebo, time to healing of all (non-aborted and aborted) lesions / Proportion of patients with aborted lesions / Time to healing of all (non-aborted and aborted) lesions (median): ITT; for Time to healing of all (non-aborted and aborted) lesions (median): aborted lesions assigned time zero
Source text: This study design is a parallel-group, double-blind, double-dummy, randomized placebo-controlled trial of patient initiated therapy in adult immunocompetent patients with recurrent herpes labialis.
Adult immunocompetent patients with a history of recurrent herpes labialis and at least three episodes in the previous 12 months are selected. These patients have a history of prodromal symptoms preceding at least 50% of their herpes labialis episodes and a history of vesicular lesions occurring in at least 50% of those episodes.
After screening, a total of 900 eligible patients are randomly assigned to one of three treatment groups and are dispensed study medication. The overall assignment ratio is 1:1:1. Patients are instructed to initiate treatment within one hour of the first prodromal symptom without any clinical signs of a recurrent episode of herpes labialis.
Group 1, famciclovir 1500 mg daily (1500 mg po followed by placebo 12 hours later)
Group 2, famciclovir 1500 mg daily (750 mg po b.i.d.) or
Group 3, matching placebo capsules (po b.i.d.).
The criteria for evaluation include the primary efficacy variable and secondary efficacy variables. The primary efficacy variable is the investigator-assessed time to healing (re-epithelialization) of the non-aborted primary lesion complex, defined as the time from start of treatment until loss of crust (erythema may have been present). Secondary efficacy variables include time to healing of all non-aborted lesions (primary lesion complex and secondary lesions), time to healing of all lesions (non-aborted and aborted; latter assigned a time to healing of zero), and proportion of patients with aborted lesions.
Lesion healing for vesicular lesions is defined as loss of crust, although erythema may still be present. At each visit starting with Visit 2, the investigator makes assessments based on both the investigator examination of the current visit and patient diary entries since the previous visit. If healing is confirmed, the time of healing is defined as the earliest time it was reported and continuously maintained in the diary. This convention applies to the assessment of both the primary lesion complex and all vesicular lesions.
The Kaplan-Meier method is used to estimate the distribution of time to healing for each treatment group and the median time to healing. Estimated survival curves are plotted. The 95% confidence intervals for the median times to healing are constructed based on the first-order Taylor series approximation of their standard errors using the standard errors of the estimated survival functions. The 95% confidence intervals for between-treatment median differences are constructed using standard errors.
The overall distribution of the time to healing will be compared among treatment groups using the proportional hazards model, with treatment and center as the explanatory, variables. The Efron approximate likelihood method will be used for resolution of ties. Confidence intervals for the hazard ratios will be provided.
Variable 1, the primary efficacy variable, is the investigator-assessed time to healing of the primary lesion complex, defined as the time from start of treatment until loss of crust (for vesicular (classical) lesions progressing through the vesicle/ulcer stage only, erythema is allowed).
The primary efficacy variable, investigator-assessed time to healing of the primary lesion complex, is analyzed over the modified ITT population in two approaches: the primary estimation is based on the Kaplan-Meier method, and statistical testing is based on the proportional hazards model.
Secondary efficacy variables include variables 2-7. Variable 2 is the time to healing (lost of crust) of the primary lesion complex (non-vesicular lesions will be assigned a time of zero). Variable 3 is the time to healing (loss of crust) of all vesicular lesions (non-vesicular lesions will be assigned a time of zero). […]

[2] = Study 2403: safety and tolerability evaluation; format: in vivo, human; settings: high-dose one-day treatment (750 mg b.i.d. or 1,500 mg q.d.), immunocompetent patients
Source text: The assessment of safety is based mainly on the frequency of adverse events. Adverse events are summarized by presenting, for each treatment group, the number and percentage of patients having any adverse event, having an adverse event in each body system and having each individual adverse event. Any other information collected (e.g., severity or relatedness to study medication) will be listed as appropriate.
The safety and ITT populations include all randomized patients who are exposed to (take any) study medication. Using the above definitions, the safety and ITT populations comprise the same patients. For compatibility with the standard presentations, all safety summaries are referenced using the Safety population while appropriate efficacy summaries (for secondary parameters involving both vesicular and non-vesicular lesions) are referenced using the ITT population.

[3] = system: recurrent herpes labialis; settings: 500 mg three times a day for five days; immunocompetent adult patients; cited from earlier work
herpes labialis = settings: 2,000 mg twice a day for one day; immunocompetent adult patients; cited from earlier work
[4] = system: orolabial herpes infection; settings: 200 mg or 400 mg five times a day for five days; cited from earlier work
[5] = 750 mg b.i.d. for one day, Modified ITT
[6] = 750 mg b.i.d. for one day, Per Protocol
[7] = 1500 mg q.d. single dose, Modified ITT
[8] = 1500 mg q.d. single dose, Per Protocol

## CC(=O)OCC(CCn1cnc2cnc(N)nc21)COC(C)=O [Famciclovir, 9-(4-acetoxy-3-acetoxymethylbut-1-yl)-2-aminopurine]
[1]; 750 mg b.i.d. for one day
  Hazard ratio vs placebo, time to healing of all (non-aborted and aborted) lesions: 1.39
  Proportion of patients with aborted lesions: 29%
  Time to healing of all (non-aborted and aborted) lesions (median): 3.0 days
[1]; [5]
  Hazard ratio vs placebo, time to healing of all non-aborted (primary and secondary) lesions: 2.06
  Hazard ratio vs placebo, time to healing of primary lesion complex: 2.05
  Time to healing of all non-aborted (primary and secondary) lesions (median): 4.1 days
  Time to healing of primary lesion complex (median): 4.0 days
[1]; [6]
  Hazard ratio vs placebo, time to healing of primary lesion complex: 2.06
  Time to healing of primary lesion complex (median): 4.0 days
[1]; 1500 mg q.d. single dose
  Hazard ratio vs placebo, time to healing of all (non-aborted and aborted) lesions: 1.34
  Proportion of patients with aborted lesions: 33%
  Time to healing of all (non-aborted and aborted) lesions (median): 2.9 days
[1]; [7]
  Hazard ratio vs placebo, time to healing of all non-aborted (primary and secondary) lesions: 1.71
  Hazard ratio vs placebo, time to healing of primary lesion complex: 1.64
  Time to healing of all non-aborted (primary and secondary) lesions (median): 4.5 days
  Time to healing of primary lesion complex (median): 4.4 days
[1]; [8]
  Hazard ratio vs placebo, time to healing of primary lesion complex: 1.71
  Time to healing of primary lesion complex (median): 4.4 days
[2]
  Safety and tolerability: safe, well-tolerated
[2]; listed as FCV
  Safety and tolerability: well tolerated and as safe as placebo
[3]
  Size of lesions as compared to placebo: reduction of the size of lesions
  Time to healing as compared to placebo: shorter time to healing

## CC(C)[C@H](N)C(=O)OCCOCn1cnc2c(=O)[nH]c(N)nc21 [Valacyclovir]
Herpes labialis
  Median time to healing of lesions as compared to placebo: reduced by approximately one day

## Nc1nc2c(ncn2COCCO)c(=O)[nH]1 [acyclovir]
[4]
  Time to healing of vesicular lesions and pain: significant but limited reduction
